# Experiments:
# [1] = test system: K. pneumoniae (ATCC 10031); test: Antibacterial assay (MIC50); assay type: cell-based, Klebsiella pneumoniae; conditions: against K. pneumoniae; compared with 31.25 µg mL^−1 of Oliveira et al.
# Excerpt: The human-pathogenic Gram-negative bacteria K. pneumoniae (ATCC 10031) strain was obtained from the Laboratory of Plant Toxins (LABTOX) of the Federal University of Ceará (UFC).
# [2] = test system: K. pneumoniae cells; test: Cell viability by MTT assay, planktonic cells; assay type: cell-based, Klebsiella pneumoniae; conditions: peptide at MIC50 31.25 μg mL^−1 (Table 1; method says 1 mg mL^−1), MTT 3 h, 37 °C, absorbance 495 nm
# Experimental: The cell viability assay was performed as described by Lima et al., with some adjustments. After the antibacterial assay was completed as described by Oliveira et al., the wells containing the treated cells with Mo-CBP3-PepI at 1 mg mL^−1 and control cells (50 µL) were incubated for 3 h in the dark at 37 °C with 50 µL of 3-(4,5-dimethylthiazol-2-yl)-2,5-diphenyltetrazolium bromide (2 mg mL^−1, MTT). After incubation, 100 µL of 100% DMSO was added to the wells, and the plate was slowly shaken to dissolve the formazan crystals. The absorbance was measured using a microplate reader (Epoch, BioTek) with a wavelength of 495 nm. The controls used for this assay were 5% of dimethyl sulfoxide (DMSO) prepared in 0.15 M NaCl (saline) solution and ciprofloxacin (1000 µg mL^−1) prepared in 5% ethanol in sterile saline solution.
# [3] = test system: K. pneumoniae cell membrane; test: Cell membrane integrity by propidium iodide uptake; assay type: cell-based, Klebsiella pneumoniae; conditions: peptide 31.25 µg mL^−1, 24 h
# Experimental: The assay was conducted as described by Oliveira et al., with some modifications. Preparation of cell suspension was completed as mentioned above. After, 50 µL of the diluted bacteria solution was incubated in the dark for 24 h, at 37 °C, with 50 µL of the peptide solution (31.25 µg mL^−1) previously prepared with 5% of dimethyl sulfoxide (DMSO) diluted in 0.15 M NaCl solution. The assay was conducted in 1.5 mL microtubes. The diluted bacteria solution was incubated only with the DMSO-NaCl solution for control. After incubation, the microtubes were centrifuged (5000× g, 5 min, 4 °C) and washed three times. Next, the washed cells were incubated with 1 µM propidium iodide for 30 min, in the dark, at 37 °C. After this, the cells were washed two times with saline solution to remove the excess fluorophore and observed with a fluorescence microscope (Olympus System BX 60; excitation wavelength, 488 nm; emission wavelength, […]).
# [4] = test system: K. pneumoniae cells; test: ROS overproduction (DCFH-DA fluorescence microscopy); assay type: cell-based, Klebsiella pneumoniae; conditions: peptide 31.25 µg mL^−1, 24 h, 1 mM DCFH-DA 30 min
# Experimental: This assay was conducted in the same way as above but with a few differences. The preparation of cell suspension and the antimicrobial assay was performed in the same way described above. After the three rounds of centrifugation and washes, the cells were incubated with 1 mM 2,7-dichlorofluorescein diacetate (DCFH-DA) for 30 min, in the dark, at 37 °C. After the washes, the cells were also observed under a fluorescence microscope (Olympus System BX60; excitation wavelength, 488 nm; emission wavelength, 525 nm).
# [5] = test system: K. pneumoniae (ATCC 10031); design: method as in PMID 30389515; conditions: against K. pneumoniae; cited from earlier work
# [6] = design: method as in PMID 30389515; conditions: design feature; cited from earlier work
# Excerpt: Synthetic antimicrobial peptides emerged as a solution to solve the problems presented by natural antimicrobial peptides. […] To answer the first question, it is necessary to revert to the design process of Mo-CBP3-PepI.
# [7] = test system: C. albicans cells; conditions: cited from earlier work
# Excerpt: To answer the second question, it is necessary to understand an essential characteristic of antimicrobial peptides, self-association. Self-association is the ability of antimicrobial peptides to interact during the insertion into the membrane, allowing the formation of a huge pore. […] In this model, a peptide interacts with lipids in the membrane, as described above, to perform the insertion into the membrane. Then, the peptide molecules interact between them to form a huge por ...
sequence,measurement,setting,value
CPAIQRCC [Mo-CBP3-PepI],"MIC50, experiments repeated here",[1],same results
same,Cell Viability (%),[2],47.54 ± 0.008%
same,pore size indicated by movement of PI,[3],692.50 Da
same,membrane pore formation (PI uptake),"[3]; 37 °C, 1 µM PI 30 min, fluorescence microscopy",induced the pore formation
same,ROS overproduction,[4],slight accumulation of ROS
same,MIC50,[5],31.25 µg/mL
same,hydrophobic ratio,[6],62%
same,net charge,[6],+1
same,pore size,[7],10 kDa
